Data on two compounds can be found in paper PMC2956650, “The Dopamine Metabolite 3-Methoxytyramine Is a Neuromodulator” (PLoS ONE, 2010).

This experiment concerns the target T1, human trace amine associated receptor 1 (hTAAR1) (Homo sapiens, UniProt Q96RJ0).
T1 construct: gene TAAR1; hTAAR1 with the first nine amino acids of the β2-adrenergic receptor added at N-terminus
T1 sequence (Q96RJ0 1-339): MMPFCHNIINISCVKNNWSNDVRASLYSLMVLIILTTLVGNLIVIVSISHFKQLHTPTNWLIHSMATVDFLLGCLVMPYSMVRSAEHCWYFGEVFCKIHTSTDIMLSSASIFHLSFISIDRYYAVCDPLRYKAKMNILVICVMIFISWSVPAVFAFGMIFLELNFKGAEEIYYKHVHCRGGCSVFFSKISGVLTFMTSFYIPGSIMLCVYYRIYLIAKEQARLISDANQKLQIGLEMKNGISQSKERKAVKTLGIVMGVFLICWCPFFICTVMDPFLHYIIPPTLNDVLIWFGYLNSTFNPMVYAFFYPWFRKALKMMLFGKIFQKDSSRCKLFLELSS
In words: [3H]-cAMP accumulation (column assay) in HEK-293 cells transfected with hTAAR1; no effect in mock cells. Type of experiment: cell-based. (Changes in cAMP serve as a functional read-out for many G protein-coupled receptors.)

Read-outs that look alike come from different tables or passages of the source.

What is called EC50 is the concentration giving half of the maximal effect. The compound `COc1cc(CCN)ccc1O` [3-MT, 3-methoxytyramine] registered an EC50 of 700 ± 180 nM.

In the case of `NCCc1ccc(O)cc1` [tyramine], where the note is “read-out: EC50”, the EC50 was found to be 320 ± 100 nM.
